This note sets out measurements from PubChem BioAssay (NCI).

Test systems include UACC-62 melanoma; HCC-2998 colon; SK-MEL-5 melanoma; HL-60(TB) leukemia; MDA-MB-231 breast; MCF7 breast; OVCAR-3 ovarian; ACHN renal; MOLT-4 leukemia; NCI-H226 lung.
Common to all, as to assay: inhibition of tumour cell growth, NCI panel, 48 h

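Results reflect a 48-hour exposure of cells in 96-well plates to compound at five concentrations. Definition used: TGI = concentration required for complete inhibition of growth.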

Turning to `Nc1ccc2nc3n(c2c1)C(c1c(F)cccc1F)SC3` (stereo not drawn), the TGI with UACC-62 melanoma, with HCC-2998 colon, with SK-MEL-5 melanoma, with HL-60(TB) leukemia, in the assay with MDA-MB-231 breast and in the assay with MCF7 breast was above 100 µM each time. Also, the TGI with OVCAR-3 ovarian, in the assay with ACHN renal and with MOLT-4 leukemia was above 100 µM throughout.
Consider `CC(C)(C)n1[nH]c(=O)n(C(C)(C)C)c1=O`, for which the TGI in the assay on UACC-62 melanoma, with HCC-2998 colon, with SK-MEL-5 melanoma, with HL-60(TB) leukemia, in the assay with MDA-MB-231 breast and in the assay with MCF7 breast was above 100 µM in each case. The TGI in the assay with OVCAR-3 ovarian, with ACHN renal and in the assay on MOLT-4 leukemia was above 100 µM in each case.
Regarding `N#CC12CC(C=O)=C(N)C1(C#N)CC(C=O)=C2N` (stereo not drawn), the TGI with UACC-62 melanoma is above 100 µM; in the assay on NCI-H226 lung it was above 100 µM; in the assay with HCC-2998 colon, 80 µM; in the assay on SK-MEL-5 melanoma it was 54.1 µM; with HL-60(TB) leukemia it was above 100 µM; with MDA-MB-231 breast, above 100 µM. Besides, the TGI in the assay with MCF7 breast, in the assay with ACHN renal and in the assay on MOLT-4 leukemia was above 100 µM each time.
`CSc1c(C(N)=S)c(N)nn1-c1ccccc1`: the TGI in the assay on UACC-62 melanoma, in the assay on NCI-H226 lung, with HCC-2998 colon, in the assay on SK-MEL-5 melanoma, with HL-60(TB) leukemia and in the assay on MDA-MB-231 breast was above 100 µM in each case. Also, the TGI in the assay with MCF7 breast, in the assay on OVCAR-3 ovarian and with MOLT-4 leukemia was above 100 µM throughout.
For `CS(=O)(=O)c1ccc(C(=O)O[C@@H]2C(=O)N3CC[C@H]4OC(O)[C@@H]2[C@H]43)cc1` (stereo partly drawn), the TGI with UACC-62 melanoma, in the assay with NCI-H226 lung, with HCC-2998 colon, in the assay with SK-MEL-5 melanoma, with MDA-MB-231 breast and in the assay on MCF7 breast was above 100 µM throughout. Further, the TGI in the assay on OVCAR-3 ovarian, in the assay with ACHN renal and with MOLT-4 leukemia was above 100 µM throughout.
On to `Cc1cn(CCCCOC(=O)NC(CCCN=C(N)N)C(=O)O)c(=O)[nH]c1=O` (stereo not drawn), for which the TGI in the assay on UACC-62 melanoma, in the assay with NCI-H226 lung, in the assay with HCC-2998 colon, in the assay on HL-60(TB) leukemia, with MDA-MB-231 breast and with MCF7 breast was above 100 µM in each case. The TGI in the assay with OVCAR-3 ovarian, in the assay on ACHN renal and with MOLT-4 leukemia was above 100 µM throughout.
`CCOC(=O)c1ccc(Nc2nc3ccccc3n3cccc23)cc1`: the TGI in the assay with UACC-62 melanoma was above 100 µM; in the assay with HCC-2998 colon, above 100 µM; in the assay on SK-MEL-5 melanoma, above 100 µM; in the assay with HL-60(TB) leukemia, 0.0169 µM; in the assay with MDA-MB-231 breast it was above 100 µM; with MCF7 breast, above 100 µM. The TGI with OVCAR-3 ovarian, in the assay on ACHN renal and with MOLT-4 leukemia was above 100 µM in each case.
Turning to `CC1=C/C(=N\NS(=O)(=O)c2ccc([N+](=O)[O-])cc2)CC(C)(C)C1`, the TGI in the assay on UACC-62 melanoma, with HCC-2998 colon, in the assay with SK-MEL-5 melanoma, in the assay with HL-60(TB) leukemia, in the assay on MDA-MB-231 breast and with MCF7 breast was above 100 µM in each case. The TGI with OVCAR-3 ovarian, in the assay with ACHN renal and in the assay on MOLT-4 leukemia was above 100 µM in each case.
With `O=C1/C(=C/c2ccc([N+](=O)[O-])cc2)CCCc2ccccc21`, the TGI with UACC-62 melanoma, in the assay on NCI-H226 lung, with HCC-2998 colon, in the assay with HL-60(TB) leukemia, in the assay on MDA-MB-231 breast and in the assay on MCF7 breast was above 100 µM throughout. Moreover, the TGI in the assay on OVCAR-3 ovarian, with ACHN renal and in the assay on MOLT-4 leukemia was above 100 µM in each case.
On to `NS(=O)(=O)c1ccc(N=Nc2ccc(O)cc2)cc1`, for which the TGI was 89.1 µM in the assay with NCI-H226 lung; above 100 µM in the assay on HCC-2998 colon; above 100 µM in the assay on SK-MEL-5 melanoma; above 100 µM in the assay with HL-60(TB) leukemia; above 100 µM in the assay with MDA-MB-231 breast; above 100 µM with MCF7 breast. The TGI with OVCAR-3 ovarian, in the assay with ACHN renal and in the assay with MOLT-4 leukemia was above 100 µM throughout.
Regarding `Cc1ccc(N2C=Nn3c(nc4sc5c(c4c3=O)CCCC5)C2)cc1`, the TGI in the assay with UACC-62 melanoma, in the assay with NCI-H226 lung, in the assay on HCC-2998 colon, with SK-MEL-5 melanoma, with MDA-MB-231 breast and in the assay with MCF7 breast was above 100 µM throughout. Further, the TGI with OVCAR-3 ovarian, in the assay on ACHN renal and in the assay with MOLT-4 leukemia was above 100 µM in each case.
Take `CC1CN=C(N(C(=O)Nc2ccc(Cl)cc2)c2cccc(Cl)c2)S1` (stereo not drawn): the TGI in the assay with HCC-2998 colon is 84.6 µM; in the assay with SK-MEL-5 melanoma it was 33.7 µM; in the assay with HL-60(TB) leukemia it was above 100 µM; with MDA-MB-231 breast, above 100 µM; with MCF7 breast it was above 100 µM; with OVCAR-3 ovarian, above 100 µM. The compound also showed a TGI in the assay on ACHN renal above 100 µM.
Turning to `COc1cc(/C=C2\N=C(c3ccccc3)N(c3nc4ccccc4s3)C2=O)cc(OC)c1OC`, the TGI with NCI-H226 lung, in the assay with HCC-2998 colon, in the assay with SK-MEL-5 melanoma, in the assay with HL-60(TB) leukemia, with MDA-MB-231 breast and in the assay on MCF7 breast was above 100 µM throughout. The TGI was found to be 60.4 µM in the assay on OVCAR-3 ovarian, 84.5 µM in the assay with ACHN renal and 46.6 µM in the assay with MOLT-4 leukemia.
For the compound `COc1nc2c(c(=O)[nH]1)N=C(c1ccccc1)CC(c1ccccc1)N2` (stereo not drawn), the TGI in the assay with UACC-62 melanoma is above 100 µM; in the assay on NCI-H226 lung, above 100 µM; in the assay with HCC-2998 colon, above 100 µM; in the assay with SK-MEL-5 melanoma, above 100 µM; with MDA-MB-231 breast, 81.6 µM; in the assay with MCF7 breast, above 100 µM. In addition, the figures for the TGI in the assay on OVCAR-3 ovarian, with ACHN renal and with MOLT-4 leukemia were above 100 µM, above 100 µM and 96.9 µM, respectively.
On to `Cc1c(C)c(S(=O)(=O)N(CCCN)OCCCN)c(C)c2c1OC(C)(C)CC2`, for which the TGI with UACC-62 melanoma is 28 µM; in the assay on NCI-H226 lung it was 28 µM; with HCC-2998 colon, 21.2 µM; in the assay on SK-MEL-5 melanoma, 29 µM; in the assay with MDA-MB-231 breast, 17.6 µM; in the assay on MCF7 breast it was 29.1 µM. The TGI in the assay with OVCAR-3 ovarian was found to be 29.5 µM; with ACHN renal, 29.6 µM; in the assay on MOLT-4 leukemia it was 14.9 µM.
